Each block holds one molecule with its values, some of them ahead of it.
Assay: photoluminescence quantum yield (fraction); solvent given as SMILES

photoluminescence quantum yield (in CC#N): 0.25 | photoluminescence quantum yield (in CCO): 0.34 | photoluminescence quantum yield (in CO): 0.35 | photoluminescence quantum yield (in ClC(Cl)Cl): 0.51
Compound: C[N+]1=C(/C=C/C2=C3Oc4c(cc5c6c4CCCN6CCC5)C(c4ccccc4C(=O)O)=C3CCC2)C(C)(C)c2ccccc21

photoluminescence quantum yield (in O): 0.003
Compound: CC[n+]1nc2ccc(N(C)C)cc2c2cc(C)ccc21

photoluminescence quantum yield (in CC#N): 0.16
Compound: C[C@]12SC(=O)C=C1c1nc(-c3ccccc3)[nH]c1C1=CC(=O)S[C@@]12C

photoluminescence quantum yield (in C1CCOC1): 0.077
Compound: Cc1cc(C2=C(c3c(C)sc(-c4ccc(-c5nc(-c6ccccc6)c(-c6ccccc6)[nH]5)cc4)c3C)C(F)(F)C(F)(F)C2(F)F)c(C)s1

photoluminescence quantum yield (in C1CCOC1): 0.01 | photoluminescence quantum yield (in C1COCCO1): 0.01 | photoluminescence quantum yield (in CC#N): 0.01 | photoluminescence quantum yield (in CC(C)O): 0.02 | photoluminescence quantum yield (in CCO): 0.01 | photoluminescence quantum yield (in CCOC(C)=O): 0.01 | photoluminescence quantum yield (in CN(C)C=O): 0.01 | photoluminescence quantum yield (in CS(C)=O): 0.01
Compound: NS(=O)(=O)c1ccc(N2N=C(c3ccc(O)cc3)CC2c2ccc([N+](=O)[O-])cc2)cc1 (stereo not drawn)

photoluminescence quantum yield (in C1COCCO1): 0.95 | photoluminescence quantum yield (in CC#N): 0.26 | photoluminescence quantum yield (in CO): 0.03 | photoluminescence quantum yield (in ClCCl): 0.2
Compound: CN(C)c1nc(N(C)C)c2nc(C#N)n(Cc3ccccc3)c2n1

photoluminescence quantum yield (in ClCCl): 0.52
Compound: C(=C\c1ccncn1)/c1ccc(-c2ccc(N(c3ccccc3)c3ccccc3)cc2)cc1

photoluminescence quantum yield (in ClCCl): 0.00091
Compound: COC(=O)C1=C(C(=O)OC)C2(c3ccccc3-c3c(Br)cc(Br)cc32)C2(/C=C/c3ccccc3)c3cc(OC)c(OC)cc3CCN12 (stereo not drawn)

photoluminescence quantum yield (in CCO): 0.16 | photoluminescence quantum yield (in ClCCl): 0.54
Compound: N#Cc1cnc(-c2c3ccccc3c(-c3ncc(C#N)cn3)c3ccccc23)nc1

photoluminescence quantum yield (in CS(C)=O): 0.08
Compound: N#CC1=C(N)n2c(=O)c3ccccc3c(=O)n2C1c1cccs1 (stereo not drawn)

photoluminescence quantum yield (in C1COCCO1): 0.165 | photoluminescence quantum yield (in CC#N): 0.047 | photoluminescence quantum yield (in CCO): 0.033 | photoluminescence quantum yield (in CCOC(C)=O): 0.089 | photoluminescence quantum yield (in O): 0.0065
Compound: CC1=N/C(=C\c2ccncc2)C(=O)N1C

photoluminescence quantum yield (in ClCCl): 0.77
Compound: Cc1cc(-c2nc3c4ccccc4c4ccccc4c3n2-c2ccc(C(C)(C)C)cc2)ccc1-c1ccc(-c2c(-c3ccccc3)nc3ccccn23)cc1

photoluminescence quantum yield (in ClCCl): 1
Compound: FC(F)(F)c1ccc(/C=C/c2nc(/C=C/c3ccc(N(c4ccccc4)c4ccccc4)cc3)cc(/C=C/c3ccc(N(c4ccccc4)c4ccccc4)cc3)n2)cc1

photoluminescence quantum yield (in C1CCOC1): 0.49
Compound: F[B-]1(F)Oc2ccccc2-c2n(-c3ccc(C(F)(F)F)cc3)c(-c3ccccc3)c(-c3ccccc3)[n+]21

photoluminescence quantum yield (in ClCCl): 0.014
Compound: c1csc(-n2c3ccccc3c3ccccc32)c1

photoluminescence quantum yield (in C1CCCCC1): 0.86 | photoluminescence quantum yield (in CC#N): 0.94 | photoluminescence quantum yield (in CC(C)O): 0.9 | photoluminescence quantum yield (in CO): 0.68 | photoluminescence quantum yield (in CS(C)=O): 0.94 | photoluminescence quantum yield (in ClC(Cl)Cl): 0.98 | photoluminescence quantum yield (in c1ccccc1): 0.92
Compound: CN(C)c1ccc2nc(-c3ccc(C(=O)OC[C@H](NC(=O)OC(C)(C)C)C(=O)OCc4ccccc4)cc3)sc2c1

photoluminescence quantum yield (in ClCCl): 0.43
Compound: COC(=O)c1ccc(C2=C(/C=C/c3ccc(OC)cc3)O[B-](F)(F)[O+]=C2/C=C/c2ccc(OC)cc2)cc1

photoluminescence quantum yield (in CC#N): 0.005 | photoluminescence quantum yield (in ClCCl): 0.012
Compound: CC(=O)Nc1cccc2c1C#Cc1c(cccc1C(=O)N(C)C)OCCCO2

photoluminescence quantum yield (in CC#N): 0.41
Compound: CCOC(=O)c1c2c3c(ccc(Cl)c3c3cc4ccccc4cc13)N(C)C2=O

The remaining lines, values behind:

Compound: COC(=O)C(N)Cc1ccc(O[Si]2(Oc3ccc(CC(N)C(=O)OC)cc3)n3c4c5ccccc5c3/N=C3N=C(/N=c5/c6ccccc6/c(n52)=N/C2=NC(=N\4)/c4ccccc42)c2ccccc2\3)cc1 (stereo not drawn)
photoluminescence quantum yield (in CN(C)C=O): 0.12

Compound: N#Cc1c(N2CCCCC2)cc(-c2cccs2)c2c1CCc1ccccc1-2
photoluminescence quantum yield (in C1CCOC1): 0.21

Compound: C1=Cc2ccccc2C(=Cc2ccc(-c3cc(-c4ccc(C=C5c6ccccc6C=Cc6ccccc65)cc4)cc(-c4ccc(C=C5c6ccccc6C=Cc6ccccc65)cc4)c3)cc2)c2ccccc21
photoluminescence quantum yield (in C1CCOC1): 0.0023

Compound: Cc1ccc(C)cc1
photoluminescence quantum yield (in C1CCCCC1): 0.39

Compound: Clc1nc(Nc2ccccc2)nc(Nc2ccc3cc4ccccc4cc3c2)n1
photoluminescence quantum yield (in C1COCCO1): 0.42 | photoluminescence quantum yield (in CC#N): 0.18 | photoluminescence quantum yield (in CCCCOCCCC): 0.35 | photoluminescence quantum yield (in CCOC(C)=O): 0.23

Compound: C[Si]1(C)O[Si](C)(C)c2cc3c(-c4ccccc4F)c4cc(Cl)ccc4nc3cc21
photoluminescence quantum yield (in ClCCl): 0.56

Compound: COc1ccc(C2=C(c3ccc(OC)cc3)C(C)(C)c3ccccc32)cc1
photoluminescence quantum yield (in C1CCCCC1): 0.09

Compound: Clc1ccc(/C=C/c2ccncn2)cc1
photoluminescence quantum yield (in ClCCl): 0.01

Compound: O=P1(c2ccccc2)C(c2cc(C(F)(F)F)cc(C(F)(F)F)c2)=Cc2c3ccc4cccc5ccc(c6cc(-c7ccccc7)n1c26)c3c45 (stereo not drawn)
photoluminescence quantum yield (in C1CCCCC1): 0.54 | photoluminescence quantum yield (in C1CCOC1): 0.61 | photoluminescence quantum yield (in C1COCCO1): 0.62 | photoluminescence quantum yield (in CC#N): 0.63 | photoluminescence quantum yield (in CC(C)=O): 0.64 | photoluminescence quantum yield (in CO): 0.65 | photoluminescence quantum yield (in Cc1ccccc1): 0.66 | photoluminescence quantum yield (in ClC(Cl)Cl): 0.6 | photoluminescence quantum yield (in ClCCl): 0.61

Compound: COc1ccc(N2c3ccc4ccccc4c3-c3c4ccccc4cc[n+]3[B-]2(c2ccccc2)c2ccccc2)cc1
photoluminescence quantum yield (in Cc1ccccc1): 0.001

Compound: CC1=C(C)C(c2c(C)c(C)c3n2[B-](F)(F)[N+]2=C(C)C(C)=C(C)C2=C3)=[N+]2C1=Cc1c(C)c(C)c(C)n1[B-]2(F)F
photoluminescence quantum yield (in ClCCl): 0.7

Compound: c1ccc(-n2c(-c3cccc4ccccc34)nc3c4ccccc4c4ccccc4c32)cc1
photoluminescence quantum yield (in Cc1ccccc1): 0.79

Compound: CCN(CC)c1ccc(/C=N/Nc2ccc(C#N)cc2)c(O)c1
photoluminescence quantum yield (in CO): 0.21
